Consider three compounds from patent US9682085B2, “Anti-proprotein convertase subtilisin kexin type 9 (anti-PCSK9) compounds and methods of using the same in the treatment and/or prevention of cardiovascular diseases” (Shifa Biomedical Corporation, priority 2013, dated 2017).

Assay [1] relates to mice fed high fat diet. Put plainly: Test for efficacy in animal model (mice fed high fat diet). It is filed as in vivo, mice (C57BL/6). The protocol:
SBC-115,076, and SBC-110,034 were tested for their efficacy in male mice (C57BL/6 mice). Mice were housed as four animals per cage under climate-controlled conditions of temperature (20-24° C.), humidity (60-70%), and alternating 12 h light/dark cycles. One group was fed commercial chow diet (Prolab RMH 3000, PMI feeds, St. Louis, Mo.) to serve as a negative control, while the other four groups were fed high fat diet (TD.06414), which provides 60% of calories from fat. Water was provided ad libitum. Plasma was collected once weekly to monitor the level of LDL. After 4 weeks of feeding a high fat-diet, mice were randomly assigned to one of several groups such that the average LDL levels were equal among different groups. […] Blood samples (75 μl) were collected twice weekly after drug administration from the retro-orbital venous plexus via heparinized capillary tubes containing 2 USP units of ammonium heparin per tube (Carolina, Burlington, N.C.). Plasma were separated immediately by centrifugation (5,000×g) for 5 min at room temperature and then kept at −80° C. until assayed for lipid profile. Plasma cholesterol, LDL-C, HDL-C, and triglyceride levels are measured enzymatically. Additionally, the plasma levels of PCSK9 and chemokines/cytokines were measured for potential pleiotropic effects of PCSK9 inhibitors using ELISA and multiplex assays.

Assay [2] has as its system HepG2 cells. Put plainly: Uptake of Fluorescent Dil-LDL in HepG2 cells in situ. It is filed as cell-based. Conditions: various concentrations (FIG. 6). The procedure:
The SBC compounds were validated for their ability to increase uptake of Fluorescent Dil-LDL in HepG2 cells.
We also tested the ability of the PCSK9 compounds to enhance the uptake of Fluorescent Dil-LDL in HepG2 cells. Briefly, HepG2 cells were plated and allowed to grow overnight. Compounds were added to the cells followed by the addition of Fluorescent Dil-LDL. Cells were washed extensively, and the Fluorescent Di-LDL taken up by the cells were measured using the Synergy 2 plate reader (FIG. 6).

In assay [3] the target is T1, PCSK9 (Homo sapiens, UniProt Q8NBP7).
T1 construct: host or cells: patients (endogenous circulating PCSK9)
T1 sequence (Q8NBP7 153-692): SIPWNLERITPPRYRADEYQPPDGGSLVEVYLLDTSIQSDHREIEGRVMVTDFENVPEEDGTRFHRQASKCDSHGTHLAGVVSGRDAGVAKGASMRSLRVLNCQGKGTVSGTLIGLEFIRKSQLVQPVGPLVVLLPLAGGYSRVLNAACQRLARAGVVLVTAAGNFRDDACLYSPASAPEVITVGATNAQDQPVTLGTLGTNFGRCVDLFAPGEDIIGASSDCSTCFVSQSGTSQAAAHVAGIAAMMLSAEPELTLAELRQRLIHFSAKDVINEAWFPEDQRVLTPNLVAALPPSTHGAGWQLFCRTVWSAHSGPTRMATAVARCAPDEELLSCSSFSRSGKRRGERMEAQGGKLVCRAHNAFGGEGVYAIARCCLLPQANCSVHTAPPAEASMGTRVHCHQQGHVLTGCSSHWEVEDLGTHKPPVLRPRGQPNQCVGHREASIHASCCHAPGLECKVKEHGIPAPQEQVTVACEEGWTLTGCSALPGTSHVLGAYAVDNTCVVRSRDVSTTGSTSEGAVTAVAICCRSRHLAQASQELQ
Particulars: single injection, clinical trial; cited from earlier work.

Where [4] appears, read: second study, 40 mg/kg, after three weeks, P<0.01.
[5] abbreviates: 8 mg/kg daily s.c., after two weeks, P<0.01 (FIG. 8).

`CC(C)c1c(C(=O)Nc2ccccc2)c(-c2ccccc2)c(-c2ccc(F)cc2)n1CC[C@@H](O)C[C@@H](O)CC(=O)O` [Atorvastatin, reference compound]: in assay [1] (setting [4]), the “mean reduction in total cholesterol levels relative to high fat diet animal levels” value came out at 27% and the “mean reduction toward return to regular diet cholesterol levels” value worked out at 44%.
Take `Cc1cc(C(=O)C2=C(O)C(=O)N(CCCN3CCOCC3)C2c2ccncc2)ccc1OCc1ccccc1` (stereo not shown) [SBC-115,076]: in assay [1] (setting [5]), the “mean reduction in total cholesterol levels relative to high fat diet animal levels” value was determined as 32% and the “mean reduction toward return to regular diet cholesterol levels” value is reported as 50%. Also, in assay [1] (8 mg/kg daily subcutaneously for two weeks), the “cholesterol levels in mice fed high fat diet” value is listed as “lowered cholesterol levels”. Further, the “uptake of Fluorescent Dil-LDL” value in assay [2] was “increase in the Fluorescent Dil-LDL uptake using submicromolar concentrations”.
For “REGN727: Regeneron/Sanofi fully-human PCSK9 monoclonal antibody”, in assay [3], the “reduction of LDL levels” value is “more than 60%”.
